# According to patent publication US6737383B1, “Herbicidal oxadiazolidines” (priority 1999, dated 2004):
# Tests used:
# morningglory = test: Test B pre/postemergence morningglory; format: in vivo, Ipomoea hederacea
# Outline: (§1)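 Herbicidal effect was estimated by eye on a ten-point control scale after plants spent twelve to sixteen days in a greenhouse following soil or foliar treatment. Foliar sprays targeted plants at one to four leaves; all doses were formulated in a non-phytotoxic solvent with surfactant.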
# bedstraw = test: Test B pre/postemergence bedstraw; format: in vivo, Galium aparine
# Outline: as §1
# giant foxtail = test: Test B pre/postemergence giant foxtail; format: in vivo, Setaria faberii
# Outline: as §1
# soybean = test: Test B pre/postemergence soybean; format: in vivo, Glycine max
# Outline: as §1
# wild oat = test: Test B pre/postemergence wild oat; format: in vivo, Avena fatua
# Outline: as §1
# surinam grass = test: Test B pre/postemergence surinam grass; format: in vivo, Brachiaria decumbens
# Outline: as §1
# blackgrass = test: Test B pre/postemergence blackgrass; format: in vivo, Alopecurus myosuroides
# Outline: as §1
# purple nutsedge = test: Test B pre/postemergence purple nutsedge; format: in vivo, Cyperus rotundus
# Outline: as §1
# wheat = test: Test B pre/postemergence wheat; format: in vivo, Triticum aestivum
# Outline: as §1
# cocklebur = test: Test B pre/postemergence cocklebur; format: in vivo, Xanthium strumarium
# Outline: as §1
# crabgrass = test: Test B pre/postemergence crabgrass; format: in vivo, Digitaria sanguinalis
# Outline: as §1
# corn = test: Test B pre/postemergence corn; format: in vivo, Zea mays
# Outline: as §1
# velvetleaf = test: Test B pre/postemergence velvetleaf; format: in vivo, Abutilon theophrasti
# Outline: as §1
# [1] = Postemergence, Rate 62 g/ha, scale 0 to 10, 0 is no effect, 10 is complete control
# [2] = Postemergence, Rate 125 g/ha, scale of 0 to 10 where 0 is no effect and 10 is complete control
# [3] = Postemergence, Rate 250 g/ha, scale 0 to 10, 0 no effect, 10 complete control
# [4] = Preemergence, Rate 62 g/ha, scale 0 to 10 (0 no effect, 10 complete control)
# [5] = Preemergence, Rate 125 g/ha, scale 0 to 10 (0 no effect, 10 complete control)
# [6] = Preemergence, Rate 250 g/ha, scale of 0 to 10 where 0 is no effect and 10 is complete control
# [7] = Preemergence, Rate 500 g/ha, scale 0 (no effect) to 10 (complete control)
# [8] = Rate 500 g/ha, Postemergence, scale 0 to 10, 0 no effect, 10 complete control
# [9] = Rate 125 g/ha, Postemergence, scale 0 to 10, 0 no effect, 10 complete control
smiles,measurement,setting,value
Cc1ccccc1Cn1c(=O)on(C(=O)N(c2ccc(F)cc2)C(C)C)c1=O [Compound 88],Morningglory plant response rating,morningglory; [1],8
same,Morningglory plant response rating,morningglory; [2],10
same,Morningglory plant response rating,morningglory; [3],10
same,Morningglory plant response rating,morningglory; [4],0
same,"Plant response rating, Morningglory",morningglory; [5],0
same,"Plant response rating, Morningglory",morningglory; [6],0
same,Morningglory plant response rating,morningglory; [7],0
same,Morningglory plant response rating,morningglory; [8],10
same,Bedstraw plant response rating,bedstraw; [1],3
same,Bedstraw plant response rating,bedstraw; [3],9
same,Bedstraw plant response rating,bedstraw; [4],0
same,"Plant response rating, Bedstraw",bedstraw; [5],0
same,"Plant response rating, Bedstraw",bedstraw; [6],0
same,Bedstraw plant response rating,bedstraw; [7],2
same,Bedstraw plant response rating,bedstraw; [9],8
same,Bedstraw plant response rating,bedstraw; [8],9
same,Giant foxtail plant response rating,giant foxtail; [1],0
same,Giant foxtail plant response rating,giant foxtail; [2],3
same,Giant foxtail plant response rating,giant foxtail; [3],3
same,Giant foxtail plant response rating,giant foxtail; [4],4
same,"Plant response rating, Giant foxtail",giant foxtail; [5],6
same,"Plant response rating, Giant foxtail",giant foxtail; [6],10
same,Giant foxtail plant response rating,giant foxtail; [7],10
same,Giant foxtail plant response rating,giant foxtail; [8],3
same,Soybean plant response rating,soybean; [1],1
same,Soybean plant response rating,soybean; [2],1
same,Soybean plant response rating,soybean; [3],1
same,Soybean plant response rating,soybean; [4],0
same,"Plant response rating, Soybean",soybean; [5],0
same,"Plant response rating, Soybean",soybean; [6],0
same,Soybean plant response rating,soybean; [7],2
same,Soybean plant response rating,soybean; [8],1
same,Wild oats plant response rating,wild oat; [1],0
same,Wild oats plant response rating,wild oat; [2],0
same,Wild oats plant response rating,wild oat; [3],0
same,Wild oats plant response rating,wild oat; [4],0
same,"Plant response rating, Wild oats",wild oat; [5],2
same,"Plant response rating, Wild oats",wild oat; [6],2
same,Wild oats plant response rating,wild oat; [7],5
same,Wild oats plant response rating,wild oat; [8],0
same,B. signalgrass plant response rating,surinam grass; [1],0
same,B. signalgrass plant response rating,surinam grass; [3],0
same,B. signalgrass plant response rating,surinam grass; [4],0
same,"Plant response rating, B. signalgrass",surinam grass; [5],2
same,"Plant response rating, B. signalgrass",surinam grass; [6],2
same,B. signalgrass plant response rating,surinam grass; [7],5
same,B. signalgrass plant response rating,surinam grass; [9],2
same,B. signalgrass plant response rating,"surinam grass; Rate 500 g/ha, Postemergence, scale of 0 to 10 where 0 is no effect and 10 is complete control",2
same,Blackgrass plant response rating,blackgrass; [1],2
same,Blackgrass plant response rating,blackgrass; [2],5
same,Blackgrass plant response rating,blackgrass; [3],6
same,Blackgrass plant response rating,blackgrass; [4],1
same,"Plant response rating, Blackgrass",blackgrass; [5],4
same,"Plant response rating, Blackgrass",blackgrass; [6],4
same,Blackgrass plant response rating,blackgrass; [7],6
same,Blackgrass plant response rating,blackgrass; [8],6
same,Nutsedge plant response rating,purple nutsedge; [1],0
same,Nutsedge plant response rating,purple nutsedge; [2],0
same,Nutsedge plant response rating,purple nutsedge; [3],0
same,Nutsedge plant response rating,purple nutsedge; [4],0
same,"Plant response rating, Nutsedge",purple nutsedge; [5],0
same,"Plant response rating, Nutsedge",purple nutsedge; [6],0
same,Nutsedge plant response rating,purple nutsedge; [7],0
same,Nutsedge plant response rating,purple nutsedge; [8],0
same,Wheat plant response rating,wheat; [1],0
same,Wheat plant response rating,wheat; [2],0
same,Wheat plant response rating,wheat; [3],0
same,Wheat plant response rating,wheat; [4],0
same,"Plant response rating, Wheat",wheat; [5],0
same,"Plant response rating, Wheat",wheat; [6],0
same,Wheat plant response rating,wheat; [7],0
same,Wheat plant response rating,wheat; [8],0
same,Cocklebur plant response rating,cocklebur; [1],0
same,Cocklebur plant response rating,cocklebur; [2],0
same,Cocklebur plant response rating,cocklebur; [3],1
same,Cocklebur plant response rating,cocklebur; [4],0
same,"Plant response rating, Cocklebur",cocklebur; [5],0
same,"Plant response rating, Cocklebur",cocklebur; [6],0
same,Cocklebur plant response rating,cocklebur; [7],0
same,Cocklebur plant response rating,cocklebur; [8],5
same,Crabgrass plant response rating,crabgrass; [1],0
same,Crabgrass plant response rating,crabgrass; [2],0
same,Crabgrass plant response rating,crabgrass; [3],9
same,Crabgrass plant response rating,crabgrass; [4],5
same,"Plant response rating, Crabgrass",crabgrass; [5],7
same,"Plant response rating, Crabgrass",crabgrass; [6],10
same,Crabgrass plant response rating,crabgrass; [7],10
same,Crabgrass plant response rating,crabgrass; [8],9
same,Corn plant response rating,corn; [1],0
same,Corn plant response rating,corn; [2],0
same,Corn plant response rating,corn; [3],0
same,Corn plant response rating,corn; [4],0
same,"Plant response rating, Corn",corn; [5],0
same,"Plant response rating, Corn",corn; [6],0
same,Corn plant response rating,corn; [7],0
same,Corn plant response rating,corn; [8],0
same,Velvetleaf plant response rating,velvetleaf; [1],0
same,Velvetleaf plant response rating,velvetleaf; [2],0
same,Velvetleaf plant response rating,velvetleaf; [3],0
same,Velvetleaf plant response rating,velvetleaf; [4],0
same,"Plant response rating, Velvetleaf",velvetleaf; [5],0
same,"Plant response rating, Velvetleaf",velvetleaf; [6],0
same,Velvetleaf plant response rating,velvetleaf; [7],2
same,Velvetleaf plant response rating,velvetleaf; [8],0
